Assay results: patent publication US20240345105A1, “Compositions and Methods for Detecting Analytes in Oral Fluids” (George Mason Research Foundation, Inc., priority 2023, published 2024)

Test: LC/MRM-MS quantification of THC in oral fluid with heavy isotope standard curve
Format: in vivo
Conditions: oral fluid of cannabis smoking volunteer, ratio to heavy THC isotope
Source text: Samples containing drugs of interest are processed and run on the Thermo Quantum Triple Quad MS (LC/MRM MS) in triplicate. Reference Stable heavy isotope analogs are spiked into known drug free OF to determine the sensitivity limit of detection. A standard curve is generated by mixing a known amount of reference heavy isotope analogs with varying amounts of the natural drug, plotting the ratio of the concentration of natural drug to that of the heavy standard isotope analog. The reference heavy isotope analogs are spiked into suspected positive OF sample. The ratio of […] is calculated and fitted to the standard curve to calculate the natural drugs concentration.
The present disclosure provides an exemplary oral fluid sample processing protocol. […]

With `CCCCCc1cc(O)c2c(c1)OC(C)(C)[C@@H]1CCC(C)=C[C@@H]21` [THC, (6aR,10aR)-6,6,9-trimethyl-3-pentyl-6a, 7,8,10a-tetrahydro-6H-benzo[c]chromen-1-ol] the “concentration of THC in saliva” value was 8.615 ng/mL.
